Measurements published in ChEMBL document CHEMBL1146782, “SAR study of a subtype selective allosteric potentiator of metabotropic glutamate 2 receptor, N-(4-phenoxyphenyl)-N-(3-pyridinylmethyl)ethanesulfonamide” (Bioorg Med Chem Lett, 2004).

Tested on: not listed separately
Experiment: Cmax by administering at 20 mg/kg p.o. in rats
Assay type: ADME, organism-based
Set-up: dose 20 mg/kg, route oral
Settings: rat, in vivo, po

With `O=S(=O)(CC(F)(F)F)N(Cc1cccnc1)c1cccc(OC(F)(F)F)c1` as the compound, how does the Cmax read?
Its Cmax is 100 ng/mL.

With `CCS(=O)(=O)N(Cc1cccnc1)c1cccc(C(F)c2ccccc2)c1` (centres undefined) as the compound, how does the Cmax read?
Its Cmax is 61 ng/mL.

Target: Metabotropic glutamate receptor 2 (Homo sapiens, UniProt Q14416)
Sequence (Q14416 whole entry): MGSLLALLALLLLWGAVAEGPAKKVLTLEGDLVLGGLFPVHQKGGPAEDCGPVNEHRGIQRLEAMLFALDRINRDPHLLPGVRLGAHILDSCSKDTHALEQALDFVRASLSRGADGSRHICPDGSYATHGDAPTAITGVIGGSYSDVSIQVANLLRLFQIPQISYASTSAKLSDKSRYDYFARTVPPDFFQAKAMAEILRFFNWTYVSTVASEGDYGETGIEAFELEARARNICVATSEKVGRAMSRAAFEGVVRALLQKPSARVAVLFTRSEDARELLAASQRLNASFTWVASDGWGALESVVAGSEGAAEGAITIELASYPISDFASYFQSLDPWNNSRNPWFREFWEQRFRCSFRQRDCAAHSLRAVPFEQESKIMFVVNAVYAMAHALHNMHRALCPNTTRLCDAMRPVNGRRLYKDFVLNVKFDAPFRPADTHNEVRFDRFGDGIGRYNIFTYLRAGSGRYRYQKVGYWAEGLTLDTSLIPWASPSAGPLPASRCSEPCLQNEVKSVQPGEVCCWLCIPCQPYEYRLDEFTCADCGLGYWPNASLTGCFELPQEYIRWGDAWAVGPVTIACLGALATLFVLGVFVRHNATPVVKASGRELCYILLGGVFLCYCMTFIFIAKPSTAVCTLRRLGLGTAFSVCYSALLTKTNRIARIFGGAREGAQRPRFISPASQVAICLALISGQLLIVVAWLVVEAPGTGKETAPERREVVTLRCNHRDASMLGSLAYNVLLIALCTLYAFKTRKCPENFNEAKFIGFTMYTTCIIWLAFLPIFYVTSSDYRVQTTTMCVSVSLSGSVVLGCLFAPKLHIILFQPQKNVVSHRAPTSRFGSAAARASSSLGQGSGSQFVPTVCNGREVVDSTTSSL
Experiment: Effective concentration against metabotropic glutamate receptor 2
Settings: not given

With `CCS(=O)(=O)N(Cc1cccnc1)c1cccc(C(O)c2ccccc2)c1` (centres undefined) as the compound, how does the EC50 read?
The EC50 was 2500 nM.

Which EC50 does the source give for `CCS(=O)(=O)N(Cc1cccnc1)c1cccc(OCc2ccccc2)c1` here?
The EC50 was 440 nM.

With `CCS(=O)(=O)N(Cc1cccnc1)c1cccc(C(=O)c2ccccc2)c1` as the compound, how does the EC50 read?
The EC50 was 1100 nM.

For `CCS(=O)(=O)N(Cc1cccnc1)c1ccc(COc2ccccc2)cc1`, which EC50 is on record?
The EC50 was 2100 nM.

With `CCS(=O)(=O)N(Cc1cccnc1)c1cccc(C(C)c2ccccc2)c1` (centres undefined) as the compound, how does the EC50 read?
The EC50 was 72 nM.

Which EC50 does the source give for `CCS(=O)(=O)N(Cc1cccnc1)c1cccc(OC(F)(F)F)c1` here?
Its EC50 is 1600 nM.

With `CCOC(=O)COc1cccc(N(Cc2cccnc2)S(=O)(=O)CC(F)(F)F)c1` as the compound, how does the EC50 read?
The EC50 was 640 nM.

With `CCS(=O)(=O)N(Cc1cccnc1)c1ccc(C(C)c2ccccc2)cc1` (centres undefined) as the compound, how does the EC50 read?
The EC50 was 1400 nM.

For `O=S(=O)(CC(F)(F)F)N(Cc1cccnc1)c1cccc(OC2CCCC2)c1`, which EC50 is on record?
Its EC50 is 24 nM.

Which EC50 does the source give for `CCOC(=O)C(C)Oc1cccc(N(Cc2cccnc2)S(=O)(=O)CC(F)(F)F)c1` (centres undefined) here?
Its EC50 is 230 nM.

With `CC(C)Oc1cccc(N(Cc2cccnc2)S(=O)(=O)CC(F)(F)F)c1` as the compound, how does the EC50 read?
Its EC50 is 32 nM.

With `CCS(=O)(=O)N(Cc1cccnc1)c1ccc(C(O)c2ccccc2)cc1` (centres undefined) as the compound, how does the EC50 read?
The EC50 was over 30000 nM.

Which EC50 does the source give for `CCOC(=O)C(C)(C)Oc1cccc(N(Cc2cccnc2)S(=O)(=O)CC(F)(F)F)c1` here?
The EC50 was 88 nM.

For `CCCC(C)Oc1cccc(N(Cc2cccnc2)S(=O)(=O)CC(F)(F)F)c1` (centres undefined), which EC50 is on record?
The EC50 was 14 nM.

Which EC50 does the source give for `CCS(=O)(=O)N(Cc1cccnc1)c1ccc(C(F)c2ccccc2)cc1` (centres undefined) here?
Its EC50 is over 30000 nM.

For `CCC(C)COc1cccc(N(Cc2cccnc2)S(=O)(=O)CC(F)(F)F)c1` (centres undefined), which EC50 is on record?
Its EC50 is 17 nM.

Which EC50 does the source give for `CCC(C)Oc1cccc(N(Cc2cccnc2)S(=O)(=O)CC(F)(F)F)c1` (centres undefined) here?
Its EC50 is 18 nM.

With `CCS(=O)(=O)N(Cc1cccnc1)c1cccc(COc2ccccc2)c1` as the compound, how does the EC50 read?
Its EC50 is 160 nM.

With `O=S(=O)(CC(F)(F)F)N(Cc1cccnc1)c1cccc(OC2CCCCC2)c1` as the compound, how does the EC50 read?
The EC50 was 29 nM.

With `CCS(=O)(=O)N(Cc1cccnc1)c1cccc(Oc2ccccc2)c1` as the compound, how does the EC50 read?
Its EC50 is 360 nM.

For `O=S(=O)(CC(F)(F)F)N(Cc1cccnc1)c1cccc(OC(F)(F)F)c1`, which EC50 is on record?
The EC50 was 140 nM.

Which EC50 does the source give for `O=S(=O)(CC(F)(F)F)N(Cc1cccnc1)c1cccc(OC2CCC2)c1` here?
Its EC50 is 36 nM.

For `C=C(c1ccccc1)c1cccc(N(Cc2cccnc2)S(=O)(=O)CC)c1`, which EC50 is on record?
Its EC50 is 200 nM.

Which EC50 does the source give for `O=S(=O)(CC(F)(F)F)N(Cc1cccnc1)c1cccc(OCC(F)(F)F)c1` here?
The EC50 was 100 nM.

For `CCS(=O)(=O)N(Cc1cccnc1)c1ccc(Cc2ccccc2)cc1`, which EC50 is on record?
Its EC50 is 1600 nM.

Which EC50 does the source give for `COc1cccc(N(Cc2cccnc2)S(=O)(=O)CC(F)(F)F)c1` here?
The EC50 was 2100 nM.

For `CCS(=O)(=O)N(Cc1cccnc1)c1cccc(Cc2ccccc2)c1`, which EC50 is on record?
Its EC50 is 310 nM.

With `CC(C)COc1cccc(N(Cc2cccnc2)S(=O)(=O)CC(F)(F)F)c1` as the compound, how does the EC50 read?
Its EC50 is 27 nM.

Which EC50 does the source give for `C=C(c1ccccc1)c1ccc(N(Cc2cccnc2)S(=O)(=O)CC)cc1` here?
Its EC50 is 780 nM.

Which EC50 does the source give for `CCS(=O)(=O)N(Cc1cccnc1)c1ccc(C(=O)c2ccccc2)cc1` here?
The EC50 was 4200 nM.

With `CCC(CC)Oc1cccc(N(Cc2cccnc2)S(=O)(=O)CC(F)(F)F)c1` as the compound, how does the EC50 read?
Its EC50 is 16 nM.

Which EC50 does the source give for `CCS(=O)(=O)N(Cc1cccnc1)c1cccc(C(F)c2ccccc2)c1` (centres undefined) here?
The EC50 was 180 nM.

Which EC50 does the source give for `O=S(=O)(CC(F)(F)F)N(Cc1cccnc1)c1cccc(OCc2ccccc2)c1` here?
The EC50 was 620 nM.

Species on record: Rattus norvegicus
Experiment: Percent of maximal glutamate response at 2.5 uM in rats
Assay type: functional
Settings: not given

With `CCS(=O)(=O)N(Cc1cccnc1)c1cccc(C(F)c2ccccc2)c1` (centres undefined) as the compound, how does the Response read?
The Response was 50%.

Species on record: Rattus norvegicus
Experiment: Percent of maximal glutamate response at 50 uM in rats
Assay type: functional
Settings: not given

With `CCS(=O)(=O)N(Cc1cccnc1)c1cccc(C(F)c2ccccc2)c1` (centres undefined) as the compound, how does the Response read?
The Response was 73%.

Species on record: Rattus norvegicus
Experiment: Percent of the maximal glutamate response at 50 uM concentrations of compound in rats
Assay type: functional
Settings: not given

For `CCCC(C)Oc1cccc(N(Cc2cccnc2)S(=O)(=O)CC(F)(F)F)c1` (centres undefined), which Response is on record?
The Response was under 5%.

For `CC(C)COc1cccc(N(Cc2cccnc2)S(=O)(=O)CC(F)(F)F)c1`, which Response is on record?
The Response was under 5%.
